The NIST ThermoML archive (doi:10.1021/je049762q)

Test: molar heat capacity at constant pressure
Details: 101.33 kPa

Brc1ccc(Br)cc1 [1,4-dibromobenzene]
molar heat capacity at constant pressure [J/K/mol]
Details | Crystal | Liquid
5.27 K | 1.01 | –
5.8 K | 1.18 | –
6.45 K | 1.36 | –
6.5 K | 1.38 | –
7.46 K | 2.31 | –
7.64 K | 2.66 | –
7.71 K | 2.81 | –
8.52 K | 3.67 | –
8.77 K | 3.87 | –
9.03 K | 4.08 | –
9.52 K | 4.41 | –
10 K | 5.01 | –
10.07 K | 5.11 | –
10.26 K | 5.43 | –
10.6 K | 5.83 | –
11.8 K | 6.63 | –
12.15 K | 7.18 | –
12.41 K | 7.69 | –
12.47 K | 7.8 | –
13.6 K | 9.64 | –
14.05 K | 10.68 | –
14.2 K | 10.78 | –
15 K | 12.33 | –
15.55 K | 13.29 | –
15.57 K | 13.3 | –
15.9 K | 13.84 | –
16.68 K | 14.94 | –
17.46 K | 16.03 | –
17.68 K | 16.47 | –
17.94 K | 16.83 | –
18.59 K | 17.79 | –
19.73 K | 19.51 | –
20 K | 19.9 | –
20.25 K | 20.25 | –
22.16 K | 22.72 | –
22.64 K | 23.37 | –
23.84 K | 25.08 | –
24.7 K | 25.82 | –
25 K | 26.17 | –
26.55 K | 28 | –
27.15 K | 28.54 | –
28.82 K | 30.45 | –
29.32 K | 30.8 | –
30 K | 31.55 | –
31.01 K | 32.68 | –
31.27 K | 32.7 | –
33.06 K | 34.41 | –
33.29 K | 34.82 | –
35.63 K | 36.98 | –
38.01 K | 38.95 | –
40 K | 40.38 | –
40.43 K | 40.7 | –
42.9 K | 42.52 | –
45.4 K | 44.29 | –
47.94 K | 45.99 | –
50 K | 47.3 | –
50.51 K | 47.61 | –
53.12 K | 49.13 | –
55.75 K | 50.72 | –
58.41 K | 52.22 | –
60 K | 53.1 | –
61.09 K | 53.7 | –
63.8 K | 55.15 | –
66.54 K | 56.56 | –
69.3 K | 57.98 | –
70 K | 58.33 | –
72.07 K | 59.33 | –
74.86 K | 60.72 | –
77.68 K | 62.03 | –
80 K | 63.11 | –
80.51 K | 63.35 | –
83.36 K | 64.67 | –
86.22 K | 65.91 | –
89.08 K | 67.21 | –
89.28 K | 67.47 | –
90 K | 67.83 | –
91.9 K | 68.39 | –
92.15 K | 68.67 | –
94.65 K | 69.5 | –
95.04 K | 69.84 | –
97.35 K | 70.59 | –
97.94 K | 71.11 | –
100 K | 71.7 | –
100.85 K | 72.3 | –
102.59 K | 72.97 | –
103.77 K | 73.61 | –
105.15 K | 73.98 | –
106.7 K | 74.69 | –
109.64 K | 75.86 | –
110 K | 76 | –
112.58 K | 77.06 | –
115.54 K | 78.22 | –
118.5 K | 79.39 | –
120 K | 79.98 | –
121.46 K | 80.54 | –
124.44 K | 81.71 | –
127.42 K | 82.85 | –
130 K | 83.85 | –
130.4 K | 84.01 | –
133.39 K | 85.14 | –
136.39 K | 86.25 | –
139.39 K | 87.37 | –
140 K | 87.59 | –
142.39 K | 88.47 | –
145.4 K | 89.57 | –
148.41 K | 90.66 | –
150 K | 91.25 | –
151.43 K | 91.77 | –
154.45 K | 92.84 | –
157.47 K | 93.92 | –
160 K | 94.86 | –
160.49 K | 95.04 | –
163.52 K | 96.13 | –
166.54 K | 97.21 | –
169.55 K | 98.29 | –
170 K | 98.46 | –
172.58 K | 99.4 | –
175.6 K | 100.5 | –
178.62 K | 101.59 | –
180 K | 102.09 | –
181.65 K | 102.69 | –
184.69 K | 103.79 | –
187.72 K | 104.9 | –
190 K | 105.74 | –
190.75 K | 106.01 | –
193.79 K | 107.09 | –
196.83 K | 108.2 | –
199.86 K | 109.24 | –
200 K | 109.29 | –
202.9 K | 110.27 | –
205.94 K | 111.41 | –
208.97 K | 112.54 | –
210 K | 112.91 | –
212.01 K | 113.63 | –
215.05 K | 114.77 | –
218.09 K | 115.88 | –
220 K | 116.57 | –
221.12 K | 116.98 | –
224.16 K | 118.12 | –
227.19 K | 119.19 | –
230 K | 120.22 | –
230.23 K | 120.31 | –
233.27 K | 121.42 | –
236.31 K | 122.55 | –
239.34 K | 123.69 | –
240 K | 123.94 | –
242.38 K | 124.8 | –
245.41 K | 125.94 | –
248.44 K | 127.13 | –
250 K | 127.69 | –
251.48 K | 128.22 | –
254.52 K | 129.34 | –
257.56 K | 130.47 | –
260 K | 131.36 | –
260.6 K | 131.58 | –
263.64 K | 132.68 | –
266.67 K | 133.83 | –
269.71 K | 134.94 | –
270 K | 135.04 | –
272.74 K | 136.06 | –
275.78 K | 137.2 | –
278.81 K | 138.23 | –
280 K | 138.63 | –
281.84 K | 139.24 | –
284.87 K | 140.31 | –
287.9 K | 141.45 | –
290 K | 142.24 | –
290.93 K | 143.08 | –
292.89 K | 143.33 | –
293.96 K | 143.64 | –
295.8 K | 144.5 | –
296.99 K | 144.79 | –
298.15 K | 145.34 | –
298.79 K | 145.71 | –
300 K | 145.97 | –
300.02 K | 145.98 | –
301.84 K | 146.94 | –
303.03 K | 147.07 | –
304.88 K | 148.06 | –
306.05 K | 148.21 | –
307.92 K | 149.18 | –
309.07 K | 149.34 | –
310 K | 149.79 | –
310.96 K | 150.23 | –
312.09 K | 150.47 | –
314 K | 151.06 | –
317.04 K | 152.02 | –
320 K | 153.12 | –
320.07 K | 153.14 | –
323.1 K | 154.4 | –
326.13 K | 155.58 | –
329.16 K | 156.76 | –
330 K | 157.09 | –
332.19 K | 157.97 | –
335.22 K | 159.26 | –
338.24 K | 160.5 | –
340 K | 161.27 | –
341.26 K | 161.81 | –
344.28 K | 163.16 | –
347.3 K | 164.65 | –
350 K | 166.05 | –
350.32 K | 166.28 | –
360 K | 171.43 | –
360.48 K | 171.7 | 190.38
362.85 K | – | 190.92
363.89 K | – | 191.22
365.71 K | – | 191.62
366.91 K | – | 191.91
368.72 K | – | 192.27
369.93 K | – | 192.55
370 K | – | 192.57
371.72 K | – | 192.9
372.94 K | – | 193.22
374.79 K | – | 193.57
377.7 K | – | 194.15
380 K | – | 194.61
380.68 K | – | 194.75
